Experiments:
[1] = test system: Human immunodeficiency virus 1; test: Resistance index, ratio of EC50 for HIV1 with protease 46L/54V/73C/84V/90M mutation to EC50 for wild type HIV1 NL4-3 in HEK293 cells after 48 hrs by replication-deffective luciferase reporter gene-based phenotypic assay; type: functional
[2] = test system: Human immunodeficiency virus 1; test: Resistance index, ratio of EC50 for HIV1 with protease 46I mutation to EC50 for wild type HIV1 NL4-3 in HEK293 cells after 48 hrs by replication-deffective luciferase reporter gene-based phenotypic assay; type: functional
[3] = Cytotoxicity against human MT4 cells after 6 days by MTT assay; type: cell-based
[4] = test system: Human immunodeficiency virus 1; test: Resistance index, ratio of EC50 for non-B type HIV1 with protease 32I/47A mutation to EC50 for wild type HIV1 NL4-3 in HEK293 cells after 48 hrs by replication-deffective luciferase reporter gene-based phenotypic assay; type: functional
[5] = test system: Human immunodeficiency virus 1; test: Resistance index, ratio of EC50 for HIV1 with protease 46L mutation to EC50 for wild type HIV1 NL4-3 in HEK293 cells after 48 hrs by replication-deffective luciferase reporter gene-based phenotypic assay; type: functional
[6] = test system: Human immunodeficiency virus 1; test: Resistance index, ratio of EC50 for HIV1 with protease 33F/54L/88S/90M mutation to EC50 for wild type HIV1 NL4-3 in HEK293 cells after 48 hrs by replication-deffective luciferase reporter gene-based phenotypic assay; type: functional
[7] = test system: Human immunodeficiency virus 1; test: Resistance index, ratio of EC50 for HIV1 with protease 30N/33F/46L/54L/84V/88D mutation to EC50 for wild type HIV1 NL4-3 in HEK293 cells after 48 hrs by replication-deffective luciferase reporter gene-based phenotypic assay; type: functional
[8] = test system: Human immunodeficiency virus 1; test: Resistance index, ratio of EC50 for HIV1 with protease 46L/50L/54V/82A mutation to EC50 for wild type HIV1 NL4-3 in HEK293 cells after 48 hrs by replication-deffective luciferase reporter gene-based phenotypic assay; type: functional
[9] = test system: Human immunodeficiency virus 1; test: Resistance index, ratio of EC50 for HIV1 with protease 46L/48V/82A/90M mutation to EC50 for wild type HIV1 NL4-3 in HEK293 cells after 48 hrs by replication-deffective luciferase reporter gene-based phenotypic assay; type: functional
[10] = test system: Human immunodeficiency virus 1; test: Resistance index, ratio of EC50 for HIV1 with protease 46I/82A/84V/90M mutation to EC50 for wild type HIV1 NL4-3 in HEK293 cells after 48 hrs by replication-deffective luciferase reporter gene-based phenotypic assay; type: functional
[11] = test system: Human immunodeficiency virus 1; test: Resistance index, ratio of EC50 for HIV1 with protease 46I/50V mutation to EC50 for wild type HIV1 NL4-3 in HEK293 cells after 48 hrs by replication-deffective luciferase reporter gene-based phenotypic assay; type: functional
[12] = test system: Human immunodeficiency virus 1; test: Resistance index, ratio of EC50 for HIV1 with protease 46I/50V/90M mutation to EC50 for wild type HIV1 NL4-3 in HEK293 cells after 48 hrs by replication-deffective luciferase reporter gene-based phenotypic assay; type: functional
[13] = test system: Human immunodeficiency virus 1; test: Resistance index, ratio of EC50 for HIV1 with protease 33F/54L/82A/90M mutation to EC50 for wild type HIV1 NL4-3 in HEK293 cells after 48 hrs by replication-deffective luciferase reporter gene-based phenotypic assay; type: functional
[14] = Selectivity index, ratio of CC50 for human MT4 cells to EC50 for HIV1 NL4-3; type: toxicity, cell-based; settings: read-out: Ratio CC50/EC50
[15] = test system: Human immunodeficiency virus 1; test: Resistance index, ratio of EC50 for HIV1 with protease 46L/48V/82A/84V/90M mutation to EC50 for wild type HIV1 NL4-3 in HEK293 cells after 48 hrs by replication-deffective luciferase reporter gene-based phenotypic assay; type: functional
[16] = test system: Human immunodeficiency virus 1; test: Antiviral activity against wild type HIV1 NL4-3 in HEK293 cells after 48 hrs by replication-deffective luciferase reporter gene-based phenotypic assay; type: functional, organism-based; settings: Human immunodeficiency virus 1, NL4-3, HEK293, 48 h
[17] = test system: Human immunodeficiency virus 1; test: Resistance index, ratio of EC50 for HIV1 with protease 48V/82A/84V/90M mutation to EC50 for wild type HIV1 NL4-3 in HEK293 cells after 48 hrs by replication-deffective luciferase reporter gene-based phenotypic assay; type: functional
[18] = test system: Human immunodeficiency virus 1; test: Resistance index, ratio of EC50 for HIV1 with protease 33I/46I/84V/90M mutation to EC50 for wild type HIV1 NL4-3 in HEK293 cells after 48 hrs by replication-deffective luciferase reporter gene-based phenotypic assay; type: functional
[19] = test system: Human immunodeficiency virus 1; test: Resistance index, ratio of EC50 for HIV1 with protease 46I/82T/84V/90M mutation to EC50 for wild type HIV1 NL4-3 in HEK293 cells after 48 hrs by replication-deffective luciferase reporter gene-based phenotypic assay; type: functional
[20] = test system: Human immunodeficiency virus 1; test: Resistance index, ratio of EC50 for HIV1 with protease 54V/82A mutation to EC50 for wild type HIV1 NL4-3 in HEK293 cells after 48 hrs by replication-deffective luciferase reporter gene-based phenotypic assay; type: functional
[21] = test system: Human immunodeficiency virus 1; test: Resistance index, ratio of EC50 for HIV1 with protease 46I/54V/82A/84V mutation to EC50 for wild type HIV1 NL4-3 in HEK293 cells after 48 hrs by replication-deffective luciferase reporter gene-based phenotypic assay; type: functional
[22] = test system: Human immunodeficiency virus 1; test: Resistance index, ratio of EC50 for HIV1 with protease 33F/54L/82A/84V mutation to EC50 for wild type HIV1 NL4-3 in HEK293 cells after 48 hrs by replication-deffective luciferase reporter gene-based phenotypic assay; type: functional
[23] = test system: Human immunodeficiency virus 1; test: Resistance index, ratio of EC50 for HIV1 with protease 46I/50L/54V/82A mutation to EC50 for wild type HIV1 NL4-3 in HEK293 cells after 48 hrs by replication-deffective luciferase reporter gene-based phenotypic assay; type: functional
[24] = test system: Human immunodeficiency virus 1; test: Resistance index, ratio of EC50 for HIV1 with protease 33F/46I/84V/88D/90M mutation to EC50 for wild type HIV1 NL4-3 in HEK293 cells after 48 hrs by replication-deffective luciferase reporter gene-based phenotypic assay; type: functional
[25] = test system: Human immunodeficiency virus 1; test: Resistance index, ratio of EC50 for HIV1 with protease 37S/41K/70E mutation to EC50 for wild type HIV1 NL4-3 in HEK293 cells after 48 hrs by replication-deffective luciferase reporter gene-based phenotypic assay; type: functional
[26] = test system: Human immunodeficiency virus 1; test: Resistance index, ratio of EC50 for non-B type HIV1 with protease 46I/47V/84V mutation to EC50 for wild type HIV1 NL4-3 in HEK293 cells after 48 hrs by replication-deffective luciferase reporter gene-based phenotypic assay; type: functional
[27] = test system: Human immunodeficiency virus 1; test: Resistance index, ratio of EC50 for HIV1 with protease 33F/46I/53L/82A/84V mutation to EC50 for wild type HIV1 NL4-3 in HEK293 cells after 48 hrs by replication-deffective luciferase reporter gene-based phenotypic assay; type: functional
[28] = test system: Human immunodeficiency virus 1; test: Antiviral activity against wild type HIV1 NL4-3 infected in MT4 cells after 6 days by MTT assay; type: functional, organism-based; settings: Human immunodeficiency virus 1, NL4-3, MT4, 144 h
[29] = test system: Human immunodeficiency virus 1; test: Resistance index, ratio of EC50 for HIV1 with protease 46I/50V/54V mutation to EC50 for wild type HIV1 NL4-3 in HEK293 cells after 48 hrs by replication-deffective luciferase reporter gene-based phenotypic assay; type: functional

COC(=O)N[C@H](C(=O)N[C@@H](Cc1ccccc1)[C@@H](O)CN(Cc1ccc(-c2ccccn2)cc1)NC(=O)[C@@H](NC(=O)OC)C(C)(C)C)C(C)(C)C [ATAZANAVIR]
Ratio EC50 [1]: 55.2
Ratio EC50 [2]: 0.7
CC50 at 144 h [3]: 71000 nM
Ratio EC50 [4]: 1
Ratio EC50 [5]: 0.9
Ratio EC50 [6]: 18.9
Ratio EC50 [7]: 66.1
Ratio EC50 [8]: 68.9
Ratio EC50 [9]: 35.4
Ratio EC50 [10]: 3.8
Ratio EC50 [11]: 0.4
Ratio EC50 [12]: 1.2
Ratio EC50 [13]: 7.5
selectivity ratio [14]: 17800
Ratio EC50 [15]: 91.6
EC50 [16]: 1.5 nM
Ratio EC50 [17]: 57.7
Ratio EC50 [18]: 7.5
Ratio EC50 [19]: 32
Ratio EC50 [20]: 3.9
Ratio EC50 [21]: 5.8
Ratio EC50 [22]: 44.5
Ratio EC50 [23]: 67.5
Ratio EC50 [24]: 14.7
Ratio EC50 [25]: 1.4
Ratio EC50 [26]: 7.1
Ratio EC50 [27]: 18.3
EC50 [28]: 4 nM
Ratio EC50 [29]: 2.4

COC(=O)N[C@H](C(=O)NCCCC[C@@H](CO)N(CC(C)C)S(=O)(=O)c1ccc(N)cc1)C(c1ccccc1)c1ccccc1 [PPL-100]
Ratio EC50 [1]: 10.8
Ratio EC50 [2]: 1.5
CC50 at 144 h [3]: 37000 nM
Ratio EC50 [4]: 1.4
Ratio EC50 [5]: 1.1
Ratio EC50 [6]: 1.7
Ratio EC50 [7]: 23.2
Ratio EC50 [8]: 3.2
Ratio EC50 [9]: 7.5
Ratio EC50 [10]: 10.1
Ratio EC50 [11]: 0.8
Ratio EC50 [12]: 1.4
Ratio EC50 [13]: 30.3
selectivity ratio [14]: 2310
Ratio EC50 [15]: 13.4
EC50 [16]: 5.3 nM
Ratio EC50 [17]: 13.5
Ratio EC50 [18]: 3.4
Ratio EC50 [19]: 4.8
Ratio EC50 [20]: 1.8
Ratio EC50 [21]: 3.7
Ratio EC50 [22]: 31.2
Ratio EC50 [23]: 4
Ratio EC50 [24]: 5.6
Ratio EC50 [25]: 0.9
Ratio EC50 [26]: 4.3
Ratio EC50 [27]: 17.8
EC50 [28]: 16 nM
Ratio EC50 [29]: 0.5

Cc1c(O)cccc1C(=O)N[C@@H](CSc1ccccc1)[C@H](O)CN1C[C@H]2CCCC[C@H]2C[C@H]1C(=O)NC(C)(C)C
Ratio EC50 [1]: 82.6
Ratio EC50 [2]: 1.6
CC50 at 144 h [3]: 8000 nM
Ratio EC50 [4]: 3.1
Ratio EC50 [5]: 1.7
Ratio EC50 [6]: 14.5
Ratio EC50 [7]: 400
Ratio EC50 [8]: 11.8
Ratio EC50 [9]: 30.8
Ratio EC50 [10]: 11.2
Ratio EC50 [11]: 1.3
Ratio EC50 [12]: 19.4
Ratio EC50 [13]: 10.4
selectivity ratio [14]: 276
Ratio EC50 [15]: 43.6
EC50 [16]: 5.8 nM
Ratio EC50 [17]: 27.3
Ratio EC50 [18]: 28.5
Ratio EC50 [19]: 27.1
Ratio EC50 [20]: 12.1
Ratio EC50 [21]: 8.8
Ratio EC50 [22]: 17.2
Ratio EC50 [23]: 14
Ratio EC50 [24]: 10
Ratio EC50 [25]: 1.6
Ratio EC50 [26]: 5.1
Ratio EC50 [27]: 11.1
EC50 [28]: 29 nM
Ratio EC50 [29]: 12.7

From ChEMBL document CHEMBL1137017, “In vitro antiviral activity and cross-resistance profile of PL-100, a novel protease inhibitor of human immunodeficiency virus type 1” (Antimicrob Agents Chemother, 2007)
